Reference: US20100069319A1, “Mercaptopurine derivatives and uses thereof” (priority 2007, published 2010)

Experiments:
MDR HT-29 = experiment: Anti-proliferative concentration IC50 (Table 2); assay type: cell-based, human; details: Homo sapiens; MDR HT-29, 16 h, tested at 0-200 μM; read-out: Anti-proferative concentration - IC50 (mean ± SE)
Protocol: (§1) Cell proliferation was determined by the XTT viability assay in 96-well plates, based on the reduction of tetrazolium salt to soluble formazan compounds by living cells. Cells (10,000-15,000 cells/well) were seeded in a 96-well plate. After 16 h incubation with various concentrations of 6-MP, 6-MPR and their S-allylthio-derivatives, 50 μl of XTT/PMS mixture (50 μM PMS, 0.1% XTT in medium) was added onto the cells. After an incubation period of 3-4 h at 37° C. the absorbance of the samples was measured in an ELISA Reader at 450 nm. SDS (1%, 10 μl/well) was added to reference wells before adding the XTT/PMS solution.
(§2) The results of viability and proliferation were expressed as mean values±SD (n=3-6). For each cell line, the results were analyzed using two-way analysis of variance (ANOVA) followed by Bonferroni's posttest for the factors of the drugs used and their various concentrations, considering p<0.05 as significant. IC50 values (mean±SEM) were obtained from the linear range of the viability curve versus drug concentration (XTT assay).
(§3) In particular, cell in suspension, namely, Daudi, HL-60, U937, Molt-4, Jurkat and B-CLL, were tested at prodrug concentration of 0-100 μM, and monolayer cells, namely, Hela HtTA-1, MDR HT-29 and N87, were tested at prodrug concentration of 0-200 μM. in both cases, cell viability was determined by trypan blue dye exclusion assay. Data are presented in Table 2 hereinbelow for 6MP derivatives-treated for 16 h.

U937 = experiment: Anti-proliferative concentration IC50 (Table 2); assay type: cell-based, human; details: Homo sapiens, U-937; U937, 16 h, tested at 0-100 μM; read-out: Anti-proferative concentration - IC50 (mean ± SE)
Protocol: as §1, §2, §3

Hela = experiment: Anti-proliferative concentration IC50 (Table 2); assay type: cell-based, human; details: Homo sapiens, 16 h, tested at 0-200 μM, read-out: Anti-proferative concentration - IC50 (mean ± SE)
Protocol: as §1, §2, §3

Jurkat = experiment: Anti-proliferative concentration IC50 (Table 2); assay type: cell-based, human; details: Homo sapiens, 16 h, tested at 0-100 μM, read-out: Anti-proferative concentration - IC50 (mean ± SE)
Protocol: as §1, §2, §3

B-CLL cells = experiment: Apoptosis by Annexin-Cy5 FACS analysis; assay type: cell-based, human; details: 16 h
Protocol: Apoptosis analysis in B-CLL cells treated with 6-MP derivatives at different concentration (16 h, at 37° C.) was done by FACS analysis. B-CLL cells were incubated with FITC-CD19 anti-human antibodies (Becton Dickinson, NJ, USA) for 20 minutes at 4° C. After washing off the unbound antibodies, samples were incubated with 5 μl Annexin-Cy5 (Pharmingen, San Diego, Calif., USA) in 10 mM HEPES pH 7.4 buffer containing 140 mM NaCl and 2.5 mM CaCl2, (HBS) for 10 minutes at room temperature. Subsequently, unbound Annexin was washed out and the samples were analyzed using FACScan analyzer (Becton-Dickinson, NJ, USA). The lymphocytes were counted and gated according to their size in forward and side scatters.
The slight decrease in viability of B-CLL human peripheral blood mononuclear cells (PBMC) upon incubation in the presence of 6-MP or SA-6MP was further investigated. B-CLL cells were treated with various concentrations of either 6-MP or SA-6MP and were subjected to flow cytometry analysis, as described in Materials and Methods, in order to monitor cells undergoing apoptosis.

Hela cells = experiment: [3H] thymidine incorporation into DNA (cell proliferation); assay type: cell-based, human; details: 16 h
Protocol: (§4) The effects of 6-MP derivatives on DNA synthesis were assessed by [Methyl-^3H] thymidine incorporation into DNA. All the experiments performed with cells were carried out at least in triplicates. Adhesive cells (N87, Hela HtTA-1 and MDR HT-29) were seeded at 10,000 cells/well (96-well plate) or 60,000 cells/well (24-well plate). Cells in suspension (B-CLL, Daudi, HL-60, Jurkat, MOLT4 and U937cells) were seeded at 15,000 cells/well (96-wells plate) or 100,000 cells/well (24-wells plate). Adhesive cells were grown at 37° C. for 6 h after seeding, before treatment. For the assessment of [Methyl-^3H] thymidine incorporation, cells were treated with various concentrations of 6-MP derivatives at 37° C. for 16 h in the presence of [Methyl-^3H] thymidine (0.8-1.0 μCi/well). Then, plates were frozen (−20° C., 1 h). Adhesive cells were trypsinized before harvesting. Cells in suspension were directly harvested after thawing out the frozen cells.
(§5) The antiproliferative effect of 6-MP and SA-6MP on various cell lines was assessed by determining [^3H] thymidine incorporation into the DNA. 6-MP and SA-6MP at 0-200 μM were applied to Daudi, Hela and N87 cells cultured in 96-well plates in the presence of [^3H] thymidine, as described in Materials and Methods. […] As further shown, the sensitivity to the prodrug is cell type dependent.

N87 cells = experiment: as above; assay type: cell-based, human; details: 16 h
Protocol: as §4, §5

Molt-4 = experiment: Anti-proliferative concentration IC50 (Table 2); assay type: cell-based; details: Homo sapiens; Molt-4, 16 h, tested at 0-100 μM; read-out: Anti-proferative concentration - IC50 (mean ± SE)
Protocol: as §1, §2, §3

B-CLL = experiment: Anti-proliferative concentration IC50 (Table 2); assay type: cell-based; details: Homo sapiens, 16 h, tested at 0-100 μM, read-out: Anti-proferative concentration - IC50 (mean ± SE)
Protocol: as §1, §2, §3

Daudi = experiment: Anti-proliferative concentration IC50 (Table 2); assay type: cell-based; details: Homo sapiens, 16 h, tested at 0-100 μM, read-out: Anti-proferative concentration - IC50 (mean ± SE)
Protocol: as §1, §2, §3

[1] = Nonactive 6-MP dimers in the medium of treated cell lines
Description: The fact that only a fraction of the thiopurine molecules occurs in its active form explains the need for a high prodrug concentration. The allylthio moiety of the new derivative protects the free SH from such oxidation. Only later, upon entry to the cellular reducing environment is the mixed disulfide SA-6MP cleaved, which renders higher efficiency at lower concentrations. The proposed mechanism for the reaction of SA-6MP with free thiols in the cell is depicted in Scheme 2 hereinafter.

Daudi cells = experiment: [3H] thymidine incorporation into DNA (cell proliferation); assay type: cell-based; details: 16 h
Protocol: as §4, §5

[2] = at the same concentrations (0-200 μM)
[3] = Homo sapiens, [3H] thymidine incorporation, read-out: concentration at which 50% inhibition was observed

Row | IC50 (MDR HT-29) [µM] | IC50 (U937) [µM] | IC50 (Hela) [µM] | IC50 (Jurkat) [µM] | IC50 (Molt-4) [µM] | IC50 (Daudi) [µM] | nonactive 6-MP dimers (purine-S-S-purine) in the medium [1] | IC50 (Hela cells; [3]) [µM] | IC50 (Daudi cells; [3]) [µM] | SMILES | percent of apoptotic cells (B-CLL cells; 0-150 μM) | inhibition of proliferation (Hela cells; [2]) | inhibition of proliferation (N87 cells; [2]) | IC50 (B-CLL) [µM] | inhibition of proliferation (Daudi cells; [2]) | percent of apoptotic cells (B-CLL cells; 50 μM) [%] | percent of apoptotic cells (B-CLL cells; 100 μM) [%] | IC50 (N87 cells; [3]) [µM]
1 | > 200 | > 200 | > 200 | > 200 | 50.5 ± 6.1 | > 200 | dimers were indeed found in the medium |  |  | Sc1ncnc2nc[nH]c12 [6-MP, 6-Mercaptopurine, reference compound] | no significant increase in the percent of apoptotic cells | no inhibition of proliferation | no inhibition of proliferation | > 900 | no inhibition of proliferation |  |  | 
2 | 126 ± 19.1 | 46.7 ± 4.8 | 114 ± 12 | 54.7 ± 6.3 | 8.9 ± 1.2 | 38.3 ± 3.9 | not in the medium | 110 | ~20 | C=CCSSc1ncnc2nc[nH]c12 [SA-6MP, S-allylthio-6-mercaptopurine] |  |  |  | 129 ± 14.2 |  | 38 | 95 | 100
